# Results reported in patent publication US4931352A, “Antifungal fermentation product” (Merck & Co., Inc., priority 1989, dated 1990).
# Starred links: 1 amine or outer side, 2 acyl side, 3 side chain; linkers in the order of their positions; H or OH if unused. Positions of bridges follow the written chain, without caps; N, C: chain ends. Non-standard residues stand in square brackets, D forms with d. Residues, ends and D or L forms follow the SMILES beside them. ξ: configuration not given here. *: point of attachment. ξOrn(4,5-diOH) = O=C(C(CC(O)C(O)N[*:3])N[*:1])[*:2]; ξhTyr(βξ-OH,γξ-OH) = NC(C(=O)O)C(O)C(O)c1ccc(O)cc1; ξPro(3ξ-OH,4ξ-Me) = CC1CNC(C(=O)O)C1O; X2 = NC(=O)CC(O)C(N[*:1])C(=O)[*:2]; X1 = CCC(C)CC(C)CCCCCCCCC(=O)*; Hyp = O=C(O)[CH]1C[CH](O)CN1
# Assays:
# Candida albicans [1] = experiment: agar dilution assay (MIC), Candida albicans; type: cell-based; conditions: C. albicans strain MY1029; possible media interference with drug activity
# Protocol: (§1) The activity may be seen in an agar dilution assay employing a yeast nitrogen base dextrose agar medium. In carrying out the assay, Compound I was solubilized in 10 percent dimethyl sulfoxide (DMSO) supplemented with one drop of Tween 20. Twofold dilutions were made with sterile distilled water/10 percent DMSO to obtain final drug concentrations in the agar dilution assay plates ranging from 128 to 0.06 μg/ml.
# (§2) The yeast cultures, maintained in yeast maltose (YM) broth, were transferred to fresh YM medium and incubated overnight at 35° C. with shaking (250 rpm). After incubation, each culture was diluted in sterile saline to yield a final concentration of 3×10^5 to 3×10^6 colony forming units (CFU)/ml.
# (§3) Each prepared plate was inoculated using a Denley Multipoint Inoculator (Denley, Sussex, England) which delivers approximately 0.001 milliliter to the ar surface resulting in inoculation of from 3×10^2 to 3×10^3 CFUs. The plates were incubated at 28° C. for 48 hours. The minimum inhibitory concentrations (MICs) were recorded as the lowest concentrations of drug showing no growth or less than three CFU/spot.
# Candida albicans [2] = experiment: similar assay (MIC), expanded panel of 34 strains of Candida albicans; type: cell-based; conditions: 48 h; only against 5 of 34 strains of Candida albicans
# Protocol: as §1, §2, §3
# In a similar assay, Compound I was tested against an expanded panel of 34 different strains of Candida albicans and 13 different strains of Candida parapsilosis.
# in vitro = type: cell-based; conditions: mouse; fresh blood of CD-1 female mice; 25° C., two hours; highest drug concentration that did not lyse the red blood cells; tested 0.39 to 400 μg/ml in 5 percent dextrose; read-out: minimum lytic concentration (MLC)
# Protocol: The property of Compound I of requiring concentration of drug far above the therapeutic dose levels to effect red blood cell lysis was discovered in a standard titration/hemolysis assay using fresh blood drawn from CD-1 female mice. Concentration of drug in the range of from 0.39 to 400 μg/ml in 5 percent dextrose and a drug free control were employed.
# In carrying out the determination, the assay tubes prepared by mixing together 2 milliliters of appropriate drug dilution and 0.5 milliliter of red blood cell suspension were gently shaken to mix the contents and then the tubes were incubated at 25° C. for two hours. At the end of this time, the tubes were examined visually for complete or partial red blood cell hemolysis and compared to a drug free control. […] The MLC for Compound I was 400 μg/ml.
# Candida albicans [3] = experiment: mice infected with Candida albicans; type: in vivo
# [4] = system: filamentous fungi Cochliobolus miyabeanus, Penicillium sp. (three strains), Aspergillus niger, Trichoderma sp., Trichoderma liqnorum, Alternaria solani …; experiment: disc diffusion method, filamentous fungi; type: cell-based; conditions: 25 microliter/disc, 28° C. or 37° C., 24 hours
# Protocol: (§4) This may be seen in an antifungal assay employing a disc diffusion method against yeasts and filamentous fungi (molds).
# (§5) In the disc diffusion method, seeded assay plates are first prepared in one of the following manners according to the type of organism.
# Inocula for filamentous fungi are prepared by scraping the surface of stock plates maintained on potato dextrose agar with a moistened sterile dacron swab. The spores and mycelia are then suspended in 10 milliliters of sterile potato dextrose broth and adjusted to 70 percent transmission at 660 nm.
# (§6) For three strains of Candida albicans and one strain of Saccharomyces cerevisiae, sterile saline is employed in place of potato dextrose broth. Assay plates are prepared by diluting the inoculum into appropriate molten agar medium, cooled to 45° C. to obtain a final concentration of 4 percent (volume/volume).
# (§7) The seeded agar media thus prepared are dispensed into petri dishes for assays (11 milliliters per dish).
# (§8) The samples to be tested for production of antifungal agent are applied to 6.2 mm. filter paper discs (25 microliter/disc) and air dried at 24° C. When the sample to be tested is a crude broth, it may be centrifuged prior to application. […] Following incubation, the inhibition zones are measured and recorded.
# [5] = system: yeasts Saccharomyces cerevisiae, Candida albicans, Candida rugosa, Brettanomyces bruxellensis, Torulospora hansenii, Candida guilliermondii, Candida …; experiment: disc diffusion method, yeasts; type: cell-based; conditions: 25 microliter/disc, 28° C. or 37° C., 24 hours
# Protocol: as §4, §5
# Inocula for yeasts are prepared from overnight broth cultures then diluted into potato dextrose […] to a final concentration of either 40 percent or 70 percent transmission at 660 nm.
# as §6, §7
# as §8, with “application. The discs bearing the material to be tested are then applied employing sterile conditions to the seeded assay plates and the samples rewet with 25 percent sterile aqueous dimethylsulfoxide (25 μl/disc).” for “application.”
# [6] = solubility in organic solvents; conditions: methanol, ethanol, dimethylformamide, dimethyl sulfoxide, ethyl acetate and the like
smiles,measurement,setting,value
"CCC(C)CC(C)CCCCCCCCC(=O)NC1CC(O)C(O)NC(=O)C2C(O)C(C)CN2C(=O)C(C(O)CC(N)=O)NC(=O)C(C(O)C(O)c2ccc(O)cc2)NC(=O)C2CC(O)CN2C(=O)C(C(C)O)NC1=O [Compound I, 1-[(4R, 5R)-4,5-dihydroxy-N^2-(10,12-dimethyl-1-oxotetradecyl)-L-ornithine]-5-(threo-3-hydroxy-L-glutamine)echinocandin B] (X1-[ξOrn(4,5-diOH)]T[Hyp][ξhTyr(βξ-OH,γξ-OH)][X2][ξPro(3ξ-OH,4ξ-Me)]; lactam 1-C; configuration not given here)",growth observed (footnote to MIC),Candida albicans [1],Substantially reduced growth was observed
same,MIC,Candida albicans [2],> 1 µg/mL
same,MNTC at 2 h,in vitro,400 µg/mL
same,eradication of Candida albicans from kidneys,Candida albicans [3]; kidneys of experimentally infected mice,eradicate Candida albicans from kidneys
same,survival of mice infected with Candida albicans,Candida albicans [3]; mice infected with Candida albicans,significantly prolong the survival
same,antifungal properties (inhibition zones),[4],good antifungal properties
same,antifungal properties (inhibition zones),[5],good antifungal properties
same,solubility in organic solvents,[6],soluble
